Experimental data taken from ChEMBL document CHEMBL4627344, “Synthesis, biological evaluation and virtual screening of some acridone derivatives as potential anticancer agents” (2020).

What was measured:
Format in all cases: functional
LOX IMVI = test: Antiproliferative activity against human LOXIMVI cells assessed as inhibition of cell growth measured after 48 hrs by SRB assay
EKVX = test: Antiproliferative activity against human EKVX cells assessed as inhibition of cell growth measured after 48 hrs by SRB assay
HOP-62 = test: Antiproliferative activity against human HOP62 cells assessed as inhibition of cell growth measured after 48 hrs by SRB assay; details: HOP-62, 48 h
HCT-15 [1] = test: Antiproliferative activity against human HCT15 cells assessed as inhibition of cell growth at 10 uM measured after 48 hrs by SRB assay relative to control; details: HCT-15, 48 h, read-out: GI
OVCAR-3 = test: Antiproliferative activity against human OVCAR3 cells assessed as inhibition of cell growth measured after 48 hrs by SRB assay; details: OVCAR-3, 48 h
BT-549 [2] = test: Antiproliferative activity against human BT549 cells assessed as inhibition of cell growth measured after 48 hrs by SRB assay; details: BT-549, 48 h
NCI-H226 = test: Antiproliferative activity against human NCI-H226 cells assessed as inhibition of cell growth measured after 48 hrs by SRB assay; details: NCI-H226, 48 h
NCI-H522 = test: Antiproliferative activity against human NCI-H522 cells assessed as inhibition of cell growth measured after 48 hrs by SRB assay; details: NCI-H522, 48 h
OVCAR-5 = test: Antiproliferative activity against human OVCAR5 cells assessed as inhibition of cell growth at 10 uM measured after 48 hrs by SRB assay relative to control; details: OVCAR-5, 48 h, read-out: GI
RXF 393 = test: Antiproliferative activity against human RXF393 cells assessed as inhibition of cell growth at 10 uM measured after 48 hrs by SRB assay relative to control; details: RXF 393, 48 h, read-out: GI
MDA-MB-468 = test: Antiproliferative activity against human MDA-MB-468 cells assessed as inhibition of cell growth at 10 uM measured after 48 hrs by SRB assay relative to control; details: MDA-MB-468, 48 h, read-out: GI
COLO 205 [3] = test: Antiproliferative activity against human COLO205 cells assessed as inhibition of cell growth measured after 48 hrs by SRB assay; details: COLO 205, 48 h
Hs-578T = test: Antiproliferative activity against human Hs 578T cells assessed as inhibition of cell growth measured after 48 hrs by SRB assay
CCRF-CEM [4] = test: Antiproliferative activity against human CCRF-CEM cells assessed as inhibition of cell growth measured after 48 hrs by SRB assay
U-251 [5] = test: Antiproliferative activity against human U251 cells assessed as inhibition of cell growth measured after 48 hrs by SRB assay; details: U-251, 48 h
MDA-MB-435 = test: Antiproliferative activity against human MDA-MB-435 cells assessed as inhibition of cell growth at 10 uM measured after 48 hrs by SRB assay relative to control; details: MDA-MB-435, 48 h, read-out: GI
UO-31 = test: Antiproliferative activity against human UO31 cells assessed as inhibition of cell growth measured after 48 hrs by SRB assay; details: UO-31, 48 h
KM12 = test: Antiproliferative activity against human KM12 cells assessed as inhibition of cell growth at 10 uM measured after 48 hrs by SRB assay relative to control; details: KM12, 48 h, read-out: GI
ACHN = test: Antiproliferative activity against human ACHN cells assessed as inhibition of cell growth measured after 48 hrs by SRB assay
UACC-62 = test: Antiproliferative activity against human UACC62 cells assessed as inhibition of cell growth measured after 48 hrs by SRB assay; details: UACC-62, 48 h
CCRF-CEM [6] = test: Antiproliferative activity against human CCRF-CEM cells assessed as inhibition of cell growth at 10 uM measured after 48 hrs by SRB assay relative to control; details: read-out: GI
COLO 205 [7] = test: Antiproliferative activity against human COLO205 cells assessed as inhibition of cell growth at 10 uM measured after 48 hrs by SRB assay relative to control; details: COLO 205, 48 h, read-out: GI
HCT-116 = test: Antiproliferative activity against human HCT116 cells assessed as inhibition of cell growth measured after 48 hrs by SRB assay; details: HCT-116, 48 h
HCC 2998 = test: Antiproliferative activity against human HCC2998 cells assessed as inhibition of cell growth at 10 uM measured after 48 hrs by SRB assay relative to control; details: HCC 2998, 48 h, read-out: GI
PC-3 = test: Antiproliferative activity against human PC3 cells assessed as inhibition of cell growth at 10 uM measured after 48 hrs by SRB assay relative to control; details: PC-3, 48 h, read-out: GI
HL-60(TB) = test: Antiproliferative activity against human HL-60(TB) cells assessed as inhibition of cell growth measured after 48 hrs by SRB assay; details: HL-60, 48 h
A498 = test: Antiproliferative activity against human A498 cells assessed as inhibition of cell growth at 10 uM measured after 48 hrs by SRB assay relative to control; details: A498, 48 h, read-out: GI
CAKI-1 = test: Antiproliferative activity against human CAKI-1 cells assessed as inhibition of cell growth at 10 uM measured after 48 hrs by SRB assay relative to control; details: CAKI-1, 48 h, read-out: GI
BT-549 [8] = test: Antiproliferative activity against human BT549 cells assessed as inhibition of cell growth at 10 uM measured after 48 hrs by SRB assay relative to control; details: BT-549, 48 h, read-out: GI
MDA-MB-231 = test: Antiproliferative activity against human MDA-MB-231 cells assessed as inhibition of cell growth at 10 uM measured after 48 hrs by SRB assay relative to control; details: MDA-MB-231, 48 h, read-out: GI
K562 = test: Antiproliferative activity against human K562 cells assessed as inhibition of cell growth measured after 48 hrs by SRB assay; details: K562, 48 h
IGROV-1 = test: Antiproliferative activity against human IGROV1 cells assessed as inhibition of cell growth at 10 uM measured after 48 hrs by SRB assay relative to control; details: IGROV-1, 48 h, read-out: GI
U-251 [9] = test: Antiproliferative activity against human U251 cells assessed as inhibition of cell growth at 10 uM measured after 48 hrs by SRB assay relative to control; details: U-251, 48 h, read-out: GI
SF-295 = test: Antiproliferative activity against human SF295 cells assessed as inhibition of cell growth measured after 48 hrs by SRB assay; details: SF-295, 48 h
SR = test: Antiproliferative activity against human SR cells assessed as inhibition of cell growth measured after 48 hrs by SRB assay
HCT-15 [10] = test: Antiproliferative activity against human HCT15 cells assessed as inhibition of cell growth measured after 48 hrs by SRB assay; details: HCT-15, 48 h

Question: For `O=C1CC(c2ccccc2)Cc2nc3ccc(Cl)cc3cc21` (stereo unspecified), which GI50 (LOX IMVI) is on record?
Answer: 558 nM

Question: And the GI50 (EKVX)?
Answer: 607 nM

Question: What about the GI50 (HOP-62) of the same molecule?
Answer: 428 nM

Question: What about the inhibition of growth at 10 µM (HCT-15 [1]) of the same molecule?
Answer: 86.1%

Question: And the GI50 (OVCAR-3)?
Answer: 302 nM

Question: What about the GI50 (BT-549 [2]) of the same molecule?
Answer: 500 nM

Question: And the GI50 (NCI-H226)?
Answer: 1610 nM

Question: And the GI50 (NCI-H522)?
Answer: 314 nM

Question: What about the inhibition of growth at 10 µM (OVCAR-5) of the same molecule?
Answer: 73.6%

Question: What about the inhibition of growth at 10 µM (RXF 393) of the same molecule?
Answer: 78.2%

Question: And the inhibition of growth at 10 µM (MDA-MB-468)?
Answer: 89.8%

Question: And the GI50 (COLO 205 [3])?
Answer: 346 nM

Question: And the GI50 (Hs-578T)?
Answer: 306 nM

Question: And the GI50 (CCRF-CEM [4])?
Answer: 40 nM

Question: And the GI50 (U-251 [5])?
Answer: 729 nM

Question: What about the inhibition of growth at 10 µM (MDA-MB-435) of the same molecule?
Answer: 139%

Question: What about the GI50 (UO-31) of the same molecule?
Answer: 489 nM

Question: And the inhibition of growth at 10 µM (KM12)?
Answer: 98.3%

Question: And the GI50 (ACHN)?
Answer: 508 nM

Question: What about the GI50 (UACC-62) of the same molecule?
Answer: 333 nM

Question: And the inhibition of growth at 10 µM (CCRF-CEM [6])?
Answer: 89.6%

Question: What about the inhibition of growth at 10 µM (COLO 205 [7]) of the same molecule?
Answer: 132%

Question: What about the GI50 (HCT-116) of the same molecule?
Answer: 46.8 nM

Question: What about the inhibition of growth at 10 µM (HCC 2998) of the same molecule?
Answer: 94.7%

Question: And the inhibition of growth at 10 µM (PC-3)?
Answer: 72.3%

Question: And the GI50 (HL-60(TB))?
Answer: 211 nM

Question: And the inhibition of growth at 10 µM (A498)?
Answer: 117%

Question: And the inhibition of growth at 10 µM (CAKI-1)?
Answer: 70.8%

Question: What about the inhibition of growth at 10 µM (BT-549 [8]) of the same molecule?
Answer: 95.4%

Question: And the inhibition of growth at 10 µM (MDA-MB-231)?
Answer: 80.5%

Question: What about the GI50 (K562) of the same molecule?
Answer: 119 nM

Question: What about the inhibition of growth at 10 µM (IGROV-1) of the same molecule?
Answer: 83.5%

Question: What about the inhibition of growth at 10 µM (U-251 [9]) of the same molecule?
Answer: 81.2%

Question: What about the GI50 (SF-295) of the same molecule?
Answer: 196 nM

Question: And the GI50 (SR)?
Answer: 53.2 nM

Question: What about the GI50 (HCT-15 [10]) of the same molecule?
Answer: 588 nM
